Experiments:
Format in all cases: cell-based, human
Panc-2 = assay: cleaved caspase 3 sandwich ELISA (apoptosis), Panc-2; conditions: 29.6 μg/ml biperiden
Description: (§1) To determine the effect of biperiden, mepazine and combinations of the two active ingredients on apoptosis in cell lines, a “cleaved caspase 3” sandwich ELISA was used. The pancreatic cancer cell lines L3.6pl res, L3.6pl wt, Panc-1, Panc-2 and the reference cell line HPDE were treated with 29.6 μg/ml biperiden or 25 μM mepazine or 15 μM mepazine+3.7 μg/ml biperiden or only with vehicle (DMSO). The cleaved caspase 3 was measured 24, 48 and 72 hours after incubation. The apoptosis within the cells was measured using a PathScan “cleaved caspase 3” sandwich ELISA (Cell Signaling, #7190C) according to the manufacturers instructions. Each experiment was carried out at least 3 times in duplicate.

BxPC3 = assay: cleaved caspase 3 sandwich ELISA (apoptosis), BxPC3; conditions: 29.6 μg/ml biperiden
Description: [The procedure below names another cell line; the source lists this cell line under the same test.] as §1

[1] = tested on: tested cell lines (L3.6pl res, L3.6pl wt, Panc-1, Panc-2, BxPC3, HPDE); assay: cleaved caspase 3 sandwich ELISA (apoptosis), all tested cell lines; conditions: 29.6 μg/ml biperiden
Description: To determine the effect of biperiden, mepazine and combinations of the two active ingredients on apoptosis in cell lines, a “cleaved caspase 3” sandwich ELISA was used. […] The cleaved caspase 3 was measured 24, 48 and 72 hours after incubation. The apoptosis within the cells was measured using a PathScan “cleaved caspase 3” sandwich ELISA (Cell Signaling, #7190C) according to the manufacturers instructions. Each experiment was carried out at least 3 times in duplicate.

Panc-1 = assay: MTT proliferation assay, Panc-1
Description: The cell lines used for the proliferation assays were cultured in different media. The cell lines Pan-1, Panc-2 and BxPC3, which have been derived from the human ductal pancreatic adenocarcinoma (PDAC), were cultured in Dulbecco's modified Eagle medium (DMEM) (Sigma), that was supplemented with 1% penicillin/streptomycin (Life technologies/GIBCO 15140-122) and 10% fetal bovine serum (Life technologies/GIBCO 100500-064). The cell line L3.6pl was cultured in RPMI 1640 medium (Life technologies/GIBCO 72400-21) that was supplemented with 1% penicillin/streptomycin and 10% fetal bovine serum. […]
The proliferation rates of the cell lines were determined after stimulation with (i) biperiden, (ii) mepazine, and (iii) stimulation with both active ingredients. […] Next morning, the blanket values were measured at 490 nm in an ELISA reader (FLUOstar Omega, BMG LABTECH) after the addition of 100 μL medium and 20 μL MTT substrate (CellTiter 96 AQueous One Solution Cell Proliferation Assay, Promega). […] The ex-tinction was measured every 24 hours during a period of 72 hours.
The normal distribution of the results was analyzed by Kolgomorov-Smirnov test and Shapiro-Wilk test. Non-parametric variables were analyzed using the Mann-Whitney-U test. […]

Row | SMILES | cleaved caspase 3 (Panc-2; after 24 hours) [RLU] | increase of apoptosis rate compared to vehicle (Panc-2; after 24 hours, p=0.029) [%] | cleaved caspase 3 (Panc-2; after 48 hours) [RLU] | increase of apoptosis rate compared to vehicle (Panc-2; after 48 hours, p=0.047) [%] | cleaved caspase 3 (BxPC3; after 24 hours) [RLU] | increase of apoptosis rate compared to vehicle (BxPC3; after 24 hours, p=0.002) [%] | cleaved caspase 3 (BxPC3; after 48 hours) [RLU] | increase of apoptosis rate compared to vehicle (BxPC3; after 48 hours, p=0.004) [%] | cleaved caspase 3 (BxPC3; after 72 hours) [RLU] | increase of apoptosis rate compared to vehicle (BxPC3; after 72 hours, p=0.032) [%] | apoptosis [1] | reduction of proliferation (Panc-1; 15 μM mepazine, p=0.005) [%] | proliferation (Panc-1; 25 μM mepazine, p=0.004)
1 | OC(CCN1CCCCC1)(c1ccccc1)C1CC2C=CC1C2 (stereo not shown) [biperiden] | 360.0±11.0 | 109.1 | 306.0±74.8 | 65.3 | 813.1±37.7 | 369.8 | 1046.1 ± 34.7 | 357.5 | 862.8 ± 85.2 | 230.9 | increased apoptosis was observed in all cell lines | – | –
2 | CN1CCCC(CN2c3ccccc3Sc3ccccc32)C1 (stereo not shown) [mepazine] | – | – | – | – | – | – | – | – | – | – | – | 97.7 | completely stopped
